In patent US20250073355A1, “CD44-BINDING PEPTIDE REAGENTS AND METHODS” (THE REGENTS OF THE UNIVERSITY OF MICHIGAN, priority 2021, published 2025):

How the values were obtained:
[1] = system: orthotopic human HCC xenograft tumors (SK-Hep1); experiment: Photoacoustic imaging of orthotopic human HCC xenograft tumors
Experimental: (§1) Human HCC xenograft tumors were implanted orthotopically in female nude athymic mice. First, ˜5×10^6 SK-Hep1 tumor cells were injected subcutaneously into the hind limb flank. Tumors were then monitored twice a week and allowed to grow to 1-2 cm in diameter for 10-30 days. A small horizontal incision was made below the sternum to expose the liver. The liver was incised with a sharp scalpel horizontally in parallel with the surface of the exposed liver. A piece of the subcutaneous tumor with dimensions of ˜1×1×1 mm^3 was implanted into the incision, and then the site was sealed with absorbable hemostatic material (surgical, Johnson & Johnson). The liver was returned to its original position after confirming hemostasis.
IRDye800-labeled target and control peptides (300 μM in 200 μL PBS) were intravenously injected in mice bearing orthotopical SK-Hep1 tumors. An unlabeled peptide (1.5 mM, 100 μL) was injected 30 min prior to the labeled peptide to compete for binding. ICG (2.46 mg/kg) was injected intravenously as a control. Three-dimensional (3D) images were acquired from 0 to 48 h post injection and reconstructed using PAI tomography system (Nexus 128, Endra) using Iex=774 nm excitation. The photoacoustic signal intensity was measured from the two-dimensional (2D) maximum intensity projection (MIP) images, and the pre-injection images were used for background.
The photoacoustic images were collected to evaluate the time course for peptide uptake, FIG. 14A. […] Indocyanine green (ICG) was also administered (2.46 mg/kg) for comparison.

[2] = system: orthotopic SK-Hep1 xenograft tumors; experiment: Whole body fluorescence imaging of orthotopic human HCC xenograft tumors; conditions: peak uptake ([…]), intravenous, n=5 mice
Experimental: as §1

[3] = system: orthotopic human HCC xenograft tumors; experiment: Intraoperative laparoscopic imaging of orthotopic human HCC xenograft tumors; assay type: in vivo; conditions: […] post-injection, n=8 mice
Experimental: A self-build imaging module was attached to standard surgical laparoscope (#49003 AA, HOPKINS II Straight Forward Telescope 0°, Karl Storz, El Segundo, CA, USA) to collect WL and NIR FL images. WL illumination (MCWHL5, Thorlabs, Newton, NJ, USA) and FL excitation source (λex=785 nm, #iBEAM-SMART-785-S, Toptica Photonics) were coupled into the laparoscope. WL and NIR FL images are collected, simultaneously, by a color CCD camera (#GX-FW-28S5C-C, Point Grey Research, Richmond, BC V6W 1 K7, Canada) and a NIR CCD camera (Orca R-2, Hamamatsu Photonics, Hamamatsu City, Shizuoka Pref., Japan) with a laser power of 1.2 mW, respectively.
After completion of imaging, the mice were euthanized, and the livers were resected. A human specific anti-cytokeratin was stained on tumor sections by IHC to further confirm the implanted human derived HCC tumors, FIG. 16H. Overexpression of CD44 was confirmed by IHC and IF, FIG. 161,J. Representative histology (H&E) of the tumor is shown, FIG. 16K.

- time of peak intensity (uptake) in tumor, photoacoustic ([1]; female, nude athymic, mouse, in vivo, iv): > 24 h
Structure (SMILES): CC1(C)C(/C=C/C=C/C=C/C=C2\N(CCCCS(=O)(=O)O)c3ccc4ccccc4c3C2(C)C)=[N+](CCCCS(=O)(=O)[O-])c2ccc3ccccc3c21 [ICG, Indocyanine green]
- T/B ratio, photoacoustic imaging (mean±SD) ([1]; […] post-injection, intravenous, n=5 mice): 1.39±0.13
- T/B ratio, whole body fluorescence imaging (mean±SD) [2]: 0.46±0.03
- T/B ratio, laparoscopic fluorescence imaging (mean±SD) [3]: 0.87±0.2
